Data on 21 compounds can be found in patent US10479795B2 (Incyte Corporation, priority 2016, dated 2019).

The structures appear in SMILES notation. Counter-ions that a name gives are not always drawn. Like-named read-outs stand apart in the source and are kept apart here.

Assay [1] deals with PI3Kδ (p110δ/p85α) Recombinant Human Protein (Homo sapiens (Human), UniProt O00329). In words: PI3Kδ Scintillation Proximity Assay. The format is biochemical. A digest of the protocol:
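IC50 was fitted to percent solvent-control activity from SPA scintillation counts after WGA bead capture of 33P-labelled lipid product. Reaction: 120 min, room temperature, 3.4 nM p110δ/p85α, 20 μM PIP2, 2 μM ATP with tracer, MOPS pH 6.7 buffer containing MgCl2, DTT, CHAPS, 2% DMSO.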
For orientation: SPA uses beads or plates that emit light when radiolabelled molecules are held near them.

Assay [2] relates to Phosphorylated Ribosomal Protein S6 (RPS6). As to the kind of experiment: THP-1 RPS6 ELISA Assay. The format is cell-based, Human. Particulars: THP-1 cells, read-out: PI3Kγ_THP1_RPS6_ELISA IC50. A digest of the protocol:
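IC50 values come from a curve of percent inhibition against log compound concentration, using phospho-RPS6 ELISA (450 nm) on THP-1 lysates. Cells were serum-starved overnight, exposed to compound for 2 h at 37 °C, then challenged 15 min with 10 nM MCP-1.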

Assay [3] concerns the target PI3Kγ (p110γ) Recombinant Human Protein (Homo sapiens (Human), UniProt P48736). As to the kind of experiment: PI3K-γ Scintillation Proximity Assay. The class given is biochemical. As to conditions: read-out: PI3Kγ IC50. An outline of the steps: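 Radiometric SPA readout: […] bound to WGA beads after overnight shaking, IC50 derived from % activity of DMSO control. Reaction used human p110γ, 2 μM ATP, 20 μM PIP2, pH 6.7 MOPS buffer with MgCl2, DTT, CHAPS, 2% DMSO, room temperature.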

PI3Kγ (p110γ) Recombinant Human Protein, sequence (P48736 whole entry): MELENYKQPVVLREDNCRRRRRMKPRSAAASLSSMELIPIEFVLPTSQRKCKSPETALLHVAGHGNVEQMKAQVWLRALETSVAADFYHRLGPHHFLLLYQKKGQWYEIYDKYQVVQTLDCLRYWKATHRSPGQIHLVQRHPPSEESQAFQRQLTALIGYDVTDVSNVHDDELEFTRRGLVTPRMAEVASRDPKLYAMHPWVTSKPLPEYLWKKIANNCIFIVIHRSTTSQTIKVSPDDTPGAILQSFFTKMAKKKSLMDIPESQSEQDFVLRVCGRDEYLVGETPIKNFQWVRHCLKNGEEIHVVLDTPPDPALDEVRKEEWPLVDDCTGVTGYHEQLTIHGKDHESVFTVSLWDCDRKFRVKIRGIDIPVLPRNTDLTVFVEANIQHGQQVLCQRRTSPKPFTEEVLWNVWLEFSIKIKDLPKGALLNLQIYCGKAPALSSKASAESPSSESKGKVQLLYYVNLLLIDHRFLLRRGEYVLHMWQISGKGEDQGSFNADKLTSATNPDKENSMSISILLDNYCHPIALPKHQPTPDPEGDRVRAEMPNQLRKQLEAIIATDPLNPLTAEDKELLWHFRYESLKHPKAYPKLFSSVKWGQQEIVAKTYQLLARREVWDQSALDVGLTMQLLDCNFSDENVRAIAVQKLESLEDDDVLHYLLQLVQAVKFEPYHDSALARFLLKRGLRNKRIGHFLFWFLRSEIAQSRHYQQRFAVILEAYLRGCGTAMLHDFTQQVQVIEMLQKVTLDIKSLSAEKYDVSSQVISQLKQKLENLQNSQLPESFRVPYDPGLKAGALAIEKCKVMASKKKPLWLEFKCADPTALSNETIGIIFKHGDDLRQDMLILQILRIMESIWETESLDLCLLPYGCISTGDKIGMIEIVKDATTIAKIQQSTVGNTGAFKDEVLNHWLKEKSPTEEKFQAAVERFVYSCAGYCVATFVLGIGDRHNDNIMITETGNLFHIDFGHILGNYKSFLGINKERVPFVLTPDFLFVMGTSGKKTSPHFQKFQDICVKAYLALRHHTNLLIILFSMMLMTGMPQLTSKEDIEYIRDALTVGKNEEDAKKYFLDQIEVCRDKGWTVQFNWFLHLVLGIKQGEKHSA
PI3Kδ (p110δ/p85α) Recombinant Human Protein, sequence (O00329 whole entry): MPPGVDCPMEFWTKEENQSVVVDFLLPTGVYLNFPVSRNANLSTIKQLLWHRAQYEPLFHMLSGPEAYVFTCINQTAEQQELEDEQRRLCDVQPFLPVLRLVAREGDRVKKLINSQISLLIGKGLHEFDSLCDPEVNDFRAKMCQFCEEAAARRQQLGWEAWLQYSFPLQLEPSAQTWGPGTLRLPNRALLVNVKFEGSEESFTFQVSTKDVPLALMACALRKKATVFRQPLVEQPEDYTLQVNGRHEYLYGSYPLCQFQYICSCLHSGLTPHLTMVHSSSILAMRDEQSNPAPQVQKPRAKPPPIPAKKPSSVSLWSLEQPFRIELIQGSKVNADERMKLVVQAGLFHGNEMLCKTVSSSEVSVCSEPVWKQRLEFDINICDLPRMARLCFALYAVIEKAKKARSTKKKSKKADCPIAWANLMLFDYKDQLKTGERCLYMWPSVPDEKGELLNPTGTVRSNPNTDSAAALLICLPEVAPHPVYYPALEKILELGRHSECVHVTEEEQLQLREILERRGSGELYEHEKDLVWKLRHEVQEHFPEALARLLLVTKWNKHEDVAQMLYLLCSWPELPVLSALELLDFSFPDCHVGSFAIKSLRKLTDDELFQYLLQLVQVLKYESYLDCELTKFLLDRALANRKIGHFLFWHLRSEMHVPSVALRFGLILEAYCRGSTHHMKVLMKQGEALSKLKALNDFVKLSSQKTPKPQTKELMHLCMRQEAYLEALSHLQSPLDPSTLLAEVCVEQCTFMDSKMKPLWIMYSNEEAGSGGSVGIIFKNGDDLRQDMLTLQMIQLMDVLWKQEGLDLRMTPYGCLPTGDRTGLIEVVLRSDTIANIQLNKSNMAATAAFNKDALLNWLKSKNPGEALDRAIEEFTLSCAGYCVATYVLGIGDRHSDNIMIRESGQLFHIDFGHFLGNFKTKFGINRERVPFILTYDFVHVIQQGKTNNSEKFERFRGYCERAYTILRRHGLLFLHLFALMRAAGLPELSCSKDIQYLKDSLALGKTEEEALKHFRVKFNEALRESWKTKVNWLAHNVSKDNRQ
PI3Kδ (p110δ/p85α) Recombinant Human Protein, sequence (P27986 whole entry partner): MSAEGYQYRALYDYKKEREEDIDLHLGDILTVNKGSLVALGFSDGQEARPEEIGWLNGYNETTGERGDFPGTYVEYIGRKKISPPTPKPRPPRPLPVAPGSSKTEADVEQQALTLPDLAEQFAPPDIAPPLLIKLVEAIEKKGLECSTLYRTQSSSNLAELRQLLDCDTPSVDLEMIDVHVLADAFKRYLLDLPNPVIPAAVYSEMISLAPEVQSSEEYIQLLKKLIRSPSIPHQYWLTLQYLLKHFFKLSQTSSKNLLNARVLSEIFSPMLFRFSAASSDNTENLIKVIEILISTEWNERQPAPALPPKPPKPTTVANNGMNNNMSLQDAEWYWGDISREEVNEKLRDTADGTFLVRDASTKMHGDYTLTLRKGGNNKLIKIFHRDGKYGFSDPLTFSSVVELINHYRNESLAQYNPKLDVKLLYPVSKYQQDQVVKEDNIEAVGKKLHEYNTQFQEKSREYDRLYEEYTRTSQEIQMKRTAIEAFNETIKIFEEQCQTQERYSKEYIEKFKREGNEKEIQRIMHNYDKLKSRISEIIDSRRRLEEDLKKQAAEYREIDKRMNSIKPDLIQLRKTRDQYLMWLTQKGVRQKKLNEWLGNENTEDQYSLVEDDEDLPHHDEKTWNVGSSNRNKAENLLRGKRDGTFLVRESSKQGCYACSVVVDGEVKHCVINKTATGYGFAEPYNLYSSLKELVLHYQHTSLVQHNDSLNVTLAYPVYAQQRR

A word on the IC50: it is the concentration needed to halve the response being measured. As for `Cc1ccc(S(=O)(=O)N2CC3(CCN(C)C3=O)C2)cc1-c1cnc2c(N)nc(C(F)(F)F)nn12` [Example 348, 2-((3-(4-amino-2-(trifluoromethyl)imidazo[2,1-f][1,2,4]triazin-7-yl)-4-methylphenyl)sulfonyl)-6-methyl-2,6-diazaspiro[3.4]octan-5-one], the IC50 in assay [1] is under 100 nM; in assay [2] (Homo sapiens), 100 to 500 nM; in assay [3], under 100 nM.

On to `Cc1ccc(S(=O)(=O)N2CC3C(O)C2CN3C2CCCC2C#N)cc1-c1cnc2c(N)nc(C(F)(F)F)nn12` (stereo not drawn) [Example 353, 2-(5-((3-(4-amino-2-(trifluoromethyl)imidazo[2,1-f][1,2,4]triazin-7-yl)-4-methylphenyl)sulfonyl)-7-hydroxy-2,5-diazabicyclo[2.2.1]heptan-2-yl)cyclopentane-1-carbonitrile], for which the IC50 is 500 to 2000 nM in assay [1], over 1000 nM in assay [2] (Homo sapiens) and under 100 nM in assay [3].

Consider `Cc1ccc(S(=O)(=O)N2CC3C(O)C2CN3C2CC(C#N)C2)cc1-c1cnc2c(N)nc(C(F)(F)F)nn12` (stereo not drawn) [Example 354, 3-(5-((3-(4-amino-2-(trifluoromethyl)imidazo[2,1-f][1,2,4]triazin-7-yl)-4-methylphenyl)sulfonyl)-7-hydroxy-2,5-diazabicyclo[2.2.1]heptan-2-yl)cyclobutane-1-carbonitrile], for which the concentration for half-maximal inhibition (IC50) in assay [1] is 500 to 2000 nM; in assay [2] (Homo sapiens) it was over 1000 nM; in assay [3] it was under 100 nM.

For `Cc1ccc(S(=O)(=O)N2CC3NCC2C3O)cc1-c1cnc2c(N)nc(C(F)(F)F)nn12` (stereo not drawn) [Example 355, 2-((3-(4-amino-2-(trifluoromethyl)imidazo[2,1-f][1,2,4]triazin-7-yl)-4-methylphenyl)sulfonyl)-2,5-diazabicyclo[2.2.1]heptan-7-ol], the IC50 was 100 to 500 nM in assay [1], 100 to 500 nM in assay [2] (Homo sapiens) and under 100 nM in assay [3].

For `Cc1ccc(S(=O)(=O)N[C@H]2CC[C@H](CO)OC2)cc1-c1cnc2c(N)nc(C(F)(F)F)nn12` [Example 356, 3-(4-amino-2-(trifluoromethyl)imidazo[2,1-f][1,2,4]triazin-7-yl)-N-((3S,6R)-6-(hydroxymethyl)tetrahydro-2H-pyran-3-yl)-4-methylbenzenesulfonamide], the results for the IC50 in assay [1], in assay [2] (Homo sapiens) and in assay [3] were 100 to 500 nM, under 100 nM and under 100 nM, respectively.

As to `C[C@]1(O)CC[C@H](NS(=O)(=O)c2cc(-c3cnc4c(N)nccn34)ccc2F)CC1` [Example 359, 5-(8-aminoimidazo[1,2-a]pyrazin-3-yl)-2-fluoro-N-((1r,4r)-4-hydroxy-4-methylcyclohexyl)benzenesulfonamide], the figures for the IC50 in assay [1], in assay [2] and in assay [3] were 100 to 500 nM, over 1000 nM and under 100 nM, respectively.

For the compound `Nc1nccn2c(-c3ccc(F)c(S(=O)(=O)NCC4(CO)CCOCC4)c3)cnc12` [Example 360, 5-(8-aminoimidazo[1,2-a]pyrazin-3-yl)-2-fluoro-N-((4-(hydroxymethyl)tetrahydro-2H-pyran-4-yl)methyl)benzenesulfonamide], the half-inhibitory concentration (IC50) in assay [1] was 100 to 500 nM; in assay [2] (Homo sapiens), over 1000 nM; in assay [3], 100 to 500 nM.

As for `O=C(O)C(F)(F)F.[2H]C([2H])([2H])c1ccc(S(=O)(=O)NC23CCC(C#N)(CC2)C3)cc1-c1cnc2c(N)ncnn12` [Example 362, 3-(4-Aminoimidazo[2,1-f][1,2,4]triazin-7-yl)-N-(4-cyanobicyclo[2.2.1]heptan-1-yl)-4-(methyl-d3)benzenesulfonamide trifluoroacetate salt], the results for the IC50 in assay [1], in assay [2] (Homo sapiens) and in assay [3] were 100 to 500 nM, under 100 nM and under 100 nM, respectively.

Consider `Cc1cc(C)c(S(=O)(=O)NC23CCC(CO)(C2)C3)cc1-c1cnc2c(N)ncnn12` [Example 363, 5-(4-Aminoimidazo[1,2-f][1,2,4]triazin-7-yl)-N-(4-(hydroxymethyl)bicyclo[2.1.1]hexan-1-yl)-2,4-dimethylbenzenesulfonamide], for which the half-maximal inhibitory concentration (IC50) in assay [1] is 500 to 2000 nM; in assay [2] it was 100 to 500 nM; in assay [3] it was under 100 nM.

Take `N#CC12CCC(NS(=O)(=O)c3cccc(-c4cnc5c(N)ncnn45)c3)(C1)C2` [Example 364, 3-(4-Aminoimidazo[1,2-f][1,2,4]triazin-7-yl)-N-(4-cyanobicyclo[2.1.1]hexan-1-yl)benzenesulfonamide trifluoroacetate salt]: the IC50 in assay [1] was 100 to 500 nM; in assay [2], under 100 nM; in assay [3] it was under 100 nM.

Take `N#CC12CCC(NS(=O)(=O)c3cc(-c4cnc5c(N)ncnn45)ccc3F)(C1)C2` [Example 365, 5-(4-Aminoimidazo[1,2-f][1,2,4]triazin-7-yl)-N-(4-cyanobicyclo[2.1.1]hexan-1-yl)-2-fluorobenzenesulfonamide trifluoroacetate salt]: the IC50 is 100 to 500 nM in assay [1], 100 to 500 nM in assay [2] and under 100 nM in assay [3].

For `Nc1ncnn2c(-c3ccc(Cl)c(S(=O)(=O)NC45CCC(CO)(C4)C5)c3)cnc12` [Example 367, 5-(4-Aminoimidazo[1,2-f][1,2,4]triazin-7-yl)-2-chloro-N-(4-(hydroxymethyl)bicyclo[2.1.1]hexan-1-yl)benzenesulfonamide trifluoroacetate salt], the figures for the half-maximal inhibitory concentration (IC50) in assay [1], in assay [2] and in assay [3] were 100 to 500 nM, over 1000 nM and under 100 nM, respectively.

Take `[2H]C([2H])([2H])c1ccc(S(=O)(=O)NC23CC(CC#N)(C2)C3)cc1-c1cnc2c(N)ncnn12` [Example 371, trifluoroacetate salt]: the 50% inhibitory concentration (IC50) was 100 to 500 nM in assay [1], 100 to 500 nM in assay [2] (Homo sapiens) and under 100 nM in assay [3].

Consider `[2H]C([2H])([2H])c1ccc(S(=O)(=O)NC23CCC(O)(C2)C3)cc1-c1cnc2c(N)ncnn12` [Example 374, 3-(4-Aminoimidazo[2,1-f][1,2,4]triazin-7-yl)-N-(4-hydroxybicyclo[2.1.1]hexan-1-yl)-4-(methyl-d3)benzenesulfonamide], for which the values for the IC50 in assay [1], in assay [2] (Homo sapiens) and in assay [3] were 500 to 2000 nM, 500 to 1000 nM and under 100 nM, respectively.

For the compound `Cc1c(F)cc(S(=O)(=O)NC23CCC(CO)(CC2)OC3)cc1-c1cnc2c(N)ncnn12` [Example 375, 3-(4-aminoimidazo[1,2-f][1,2,4]triazin-7-yl)-5-fluoro-N-(1-(hydroxymethyl)-2-oxabicyclo[2.2.2]octan-4-yl)-4-methylbenzenesulfonamide trifluoroacetate salt], the values for the IC50 in assay [1], in assay [2] and in assay [3] were 100 to 500 nM, under 100 nM and under 100 nM, respectively.

For the compound `C[C@]1(O)CC[C@H](NS(=O)(=O)c2cc(-c3cnc4c(N)ncnn34)ccc2F)CC1` [Example 376, 5-(4-aminoimidazo[2,1-f][1,2,4]triazin-7-yl)-2-fluoro-N-((1r,4r)-4-hydroxy-4-methylcyclohexyl)benzenesulfonamide], the IC50 is 100 to 500 nM in assay [1], over 1000 nM in assay [2] and under 100 nM in assay [3].

On to `C[C@]1(O)CC[C@H](NS(=O)(=O)c2cc(-c3cnc4c(N)ncnn34)ccc2Cl)CC1` [Example 377, 5-(4-aminoimidazo[2,1-f][1,2,4]triazin-7-yl)-2-chloro-N-((1r,4r)-4-hydroxy-4-methylcyclohexyl)benzenesulfonamide], for which the 50% inhibitory concentration (IC50) in assay [1], in assay [2] and in assay [3] was under 100 nM each time.

Take `[2H]C([2H])([2H])c1ccc(S(=O)(=O)NC23CC(CC#N)(C2)C3)cc1-c1cnc2c(N)nc(C)cn12` [Example 378, trifluoroacetate salt]: the half-maximal inhibitory concentration (IC50) in assay [1] is 100 to 500 nM; in assay [2] (Homo sapiens) it was under 100 nM; in assay [3], under 100 nM.

Take `O=C(O)C(F)(F)F.[2H]C([2H])([2H])c1ccc(S(=O)(=O)NC23CCC(C#N)(C2)C3)cc1-c1cnc2c(N)nc(C)cn12` [Example 379, 3-(8-Amino-6-methylimidazo[1,2-a]pyrazin-3-yl)-N-(4-cyanobicyclo[2.1.1]hexan-1-yl)-4-(methyl-d3)benzenesulfonamide trifluoroacetate salt]: the figures for the IC50 in assay [1], in assay [2] (Homo sapiens) and in assay [3] were 100 to 500 nM, under 100 nM and under 100 nM, respectively.

Consider `Cc1cn2c(-c3ccc(F)c(S(=O)(=O)NC45CCC(C#N)(C4)C5)c3)cnc2c(N)n1` [Example 380, 5-(8-Amino-6-methylimidazo[1,2-a]pyrazin-3-yl)-N-(4-cyanobicyclo[2.1.1]hexan-1-yl)-2-fluorobenzenesulfonamide trifluoroacetate salt], for which the IC50 in assay [1] is 500 to 2000 nM; in assay [2] (Homo sapiens), over 1000 nM; in assay [3], under 100 nM.

Take `Cc1cn2c(-c3cccc(S(=O)(=O)NC45CCC(CO)(C4)C5)c3)cnc2c(N)n1` [Example 381, 3-(8-Amino-6-methylimidazo[1,2-a]pyrazin-3-yl)-N-(4-(hydroxymethyl)bicyclo[2.1.1]hexan-1-yl)benzenesulfonamide]: the half-maximal inhibitory concentration (IC50) in assay [1] is 100 to 500 nM; in assay [2] (Homo sapiens), 100 to 500 nM; in assay [3] it was under 100 nM.
